The subject of data set [1] is Klebsiella pneumoniae D 11750/08. Description: Antibacterial microdilution broth method, K. pneumoniae. To be noted: K. pneumoniae D 11750/08; for MIC KP 24 h: 24 h incubation; for MIC KP 48 h: 48 h incubation. In general terms: Dilution methods test growth across graded concentrations, often in twofold steps.
The test system of data set [2] is Mycobacterium kansasii 235/80. Description: Antimycobacterial micromethod in Šula's medium, M. kansasii 235/80. The format is cell-based.
A further data set deals with Candida glabrata 20/I. The data set can be described thus: Antifungal microdilution broth method, C. glabrata. To be noted: Nakaseomyces glabratus. The format is cell-based. In outline: (§1)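 MIC by visual endpoint reading after twofold serial dilution of DMSO-dissolved compounds in RPMI-1640 (L-glutamine, 2% glucose, pH 7.0 with MOPS). Method follows EUCAST instructions, slightly modified; duplicates required agreement within one dilution step.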

For data set [3], the system named is methicillin-resistant Staphylococcus aureus ATCC 43300, CCM 4750 (MRSA). The data set can be described thus: Antibacterial microdilution broth method, MRSA. The format is cell-based. To be noted: Staphylococcus aureus.
The test system of a further data set is eight fungal strains. The data set can be described thus: Antifungal activity. The conditions noted are these: statement over the fungal panel; time not stated. The format is cell-based. Put shortly:
as §1

The subject of data set [4] is four Gram-positive and four Gram-negative strains. The data set can be described thus: Antibacterial activity. The conditions noted are these: time not stated. The format is cell-based.
Setting [5] is: 235/80, 168 h, 7 days incubation at 37 °C, read-out: MIC M. kansasii 235/80 7 d.
Where [6] appears, read: 235/80, 336 h, 14 days incubation at 37 °C, read-out: MIC M. kansasii 235/80 14 d.
Where [7] appears, read: 235/80, 504 h, 21 days incubation at 37 °C, read-out: MIC M. kansasii 235/80 21 d.
Where [8] appears, read: 24 h incubation, read-out: MIC MRSA 24 h.
[9] abbreviates: 48 h incubation, read-out: MIC MRSA 48 h.
Where [10] appears, read: read-out: MIC, S. epidermidis (1e MRSA, too).

The structures appear in SMILES notation. In brackets after ≈: the same amount, converted by molar mass. Like-named read-outs stand apart in the source and are kept apart here.

For the compound `O=C(O)c1ccc(N=Cc2cc(F)ccc2O)cc1` [1b, 4-[(5-Fluoro-2-hydroxybenzylidene)amino]benzoic acid], the “MIC KP 24 h” value in data set [1] was more than 500 µM. For the same compound, in data set [1], the “MIC KP 48 h” value is recorded as more than 500 µM. In addition, the MIC is 250 µM (≈ 64.8 µg/mL) in data set [2] (setting [5]); 500 µM (≈ 130 µg/mL) in data set [2] (setting [6]); 500 µM (≈ 130 µg/mL) in data set [2] (setting [7]); more than 500 µM with Candida glabrata 20/I (24 h, read-out: MIC CG 24 h); more than 500 µM with Candida glabrata 20/I (48 h, read-out: MIC CG 48 h); more than 500 µM in data set [3] (setting [8]). In addition, the MIC (in data set [3] (setting [9]); against eight fungal strains) was more than 500 µM each time. In addition, the “MIC, antifungal activity” value in the data set on eight fungal strains is on record as “not translated into any antifungal action”.

On to `O=C(O)c1ccc(N=Cc2cc(Cl)ccc2O)cc1` [1c, 4-[(5-Chloro-2-hydroxybenzylidene)amino]benzoic acid], for which the “MIC KP 24 h” value in data set [1] is reported as more than 500 µM. Besides, in data set [1], the “MIC KP 48 h” value was more than 500 µM. Moreover, the MIC in data set [4] (setting [10]) is not below 62.5 µM; in data set [2] (setting [5]) it was 250 µM (≈ 68.9 µg/mL); in data set [2] (setting [6]), 250 µM (≈ 68.9 µg/mL); in data set [2] (setting [7]) it was 500 µM (≈ 138 µg/mL); in the data set with Candida glabrata 20/I (24 h, read-out: MIC CG 24 h), 125 µM (≈ 34.5 µg/mL); in the data set with Candida glabrata 20/I (48 h, read-out: MIC CG 48 h), 125 µM (≈ 34.5 µg/mL). Moreover, the MIC in data set [3] (setting [8]) and in data set [3] (setting [9]) was more than 500 µM each time.

Regarding `O=C(O)c1ccc(N=Cc2cc(Br)ccc2O)cc1` [1d, 4-[(5-Bromo-2-hydroxybenzylidene)amino]benzoic acid], in data set [1], the “MIC KP 24 h” value is reported as more than 250 µM. The “MIC KP 48 h” value in data set [1] is more than 250 µM. Moreover, the MIC was not below 62.5 µM in data set [4] (setting [10]); 250 µM (≈ 80 µg/mL) in data set [2] (setting [5]); 250 µM (≈ 80 µg/mL) in data set [2] (setting [6]); 500 µM (≈ 160 µg/mL) in data set [2] (setting [7]); 62.5 µM (≈ 20 µg/mL) in the data set on Candida glabrata 20/I (24 h, read-out: MIC CG 24 h); 62.5 µM (≈ 20 µg/mL) with Candida glabrata 20/I (48 h, read-out: MIC CG 48 h). Besides, the MIC in data set [3] (setting [8]) and in data set [3] (setting [9]) was more than 250 µM each time.

With `O=C(O)c1ccc(N=Cc2cc(I)ccc2O)cc1` [1e, 4-[(2-Hydroxy-5-iodobenzylidene)amino]benzoic acid], in data set [1], the “MIC KP 24 h” value is more than 250 µM. Further, the “MIC KP 48 h” value in data set [1] is listed as more than 250 µM. The MIC was not below 62.5 µM in data set [4] (setting [10]); 250 µM (≈ 91.8 µg/mL) in data set [2] (setting [5]); 250 µM (≈ 91.8 µg/mL) in data set [2] (setting [6]); 250 µM (≈ 91.8 µg/mL) in data set [2] (setting [7]); 31.2 µM (≈ 11.5 µg/mL) in the data set on Candida glabrata 20/I (24 h, read-out: MIC CG 24 h); 31.2 µM (≈ 11.5 µg/mL) in the data set with Candida glabrata 20/I (48 h, read-out: MIC CG 48 h). Further, the values for the MIC (in data set [3] (setting [8]); in data set [3] (setting [9]); in the data set on eight fungal strains) were 250 µM (≈ 91.8 µg/mL), 250 µM (≈ 91.8 µg/mL) and not below 31.2 µM, respectively.

Take `O=C(O)c1ccc(N=Cc2cc([N+](=O)[O-])ccc2O)cc1` [1f, 4-[(2-Hydroxy-5-nitrobenzylidene)amino]benzoic acid]: the “MIC KP 24 h” value in data set [1] was more than 500 µM. Also, the “MIC KP 48 h” value in data set [1] is listed as more than 500 µM. In addition, the MIC in data set [4] (Staphylococcus aureus, MRSA, read-out: MIC, multiple Gram-positive strains including MRSA) was not below 250 µM; in data set [2] (setting [5]), 500 µM (≈ 143 µg/mL); in data set [2] (setting [6]), 500 µM (≈ 143 µg/mL); in data set [2] (setting [7]), 500 µM (≈ 143 µg/mL); in the data set with Candida glabrata 20/I (24 h, read-out: MIC CG 24 h), more than 500 µM; in the data set on Candida glabrata 20/I (48 h, read-out: MIC CG 48 h), more than 500 µM. For the same compound, the MIC was 500 µM (≈ 143 µg/mL) in data set [3] (setting [8]), 500 µM (≈ 143 µg/mL) in data set [3] (setting [9]) and not below 250 µM in the data set with eight fungal strains.

`Cc1ccc(O)c(C=Nc2ccc(C(=O)O)cc2)c1` [1g, 4-[(2-Hydroxy-5-methylbenzylidene)amino]benzoic acid]: the “MIC KP 24 h” value in data set [1] is listed as more than 500 µM. In addition, the “MIC KP 48 h” value in data set [1] is recorded as more than 500 µM. Further, the MIC is 500 µM (≈ 128 µg/mL) in data set [2] (setting [5]); 500 µM (≈ 128 µg/mL) in data set [2] (setting [6]); 500 µM (≈ 128 µg/mL) in data set [2] (setting [7]); more than 125 µM in the data set on Candida glabrata 20/I (24 h, read-out: MIC CG 24 h); more than 125 µM in the data set on Candida glabrata 20/I (48 h, read-out: MIC CG 48 h); more than 500 µM in data set [3] (setting [8]). For the same compound, the MIC in data set [3] (setting [9]) was more than 500 µM. Also, the “MIC, antifungal activity” value against eight fungal strains was “not translated into any antifungal action”.

For the compound `COc1ccc(O)c(C=Nc2ccc(C(=O)O)cc2)c1` [1h, 4-[(2-Hydroxy-5-methoxybenzylidene)amino]benzoic acid], the “MIC KP 24 h” value in data set [1] is on record as more than 500 µM. In data set [1], the “MIC KP 48 h” value was more than 500 µM. Moreover, the MIC is 500 µM (≈ 136 µg/mL) in data set [2] (setting [5]); 500 µM (≈ 136 µg/mL) in data set [2] (setting [6]); 500 µM (≈ 136 µg/mL) in data set [2] (setting [7]); 250 µM (≈ 67.8 µg/mL) in the data set with Candida glabrata 20/I (24 h, read-out: MIC CG 24 h); 250 µM (≈ 67.8 µg/mL) in the data set on Candida glabrata 20/I (48 h, read-out: MIC CG 48 h); more than 500 µM in data set [3] (setting [8]). The MIC in data set [3] (setting [9]) was more than 500 µM; in the data set with eight fungal strains, not below 250 µM.

As to `CC(C)(C)c1ccc(O)c(C=Nc2ccc(C(=O)O)cc2)c1` [1j, 4-{[5-(Tert-butyl)-2-hydroxybenzylidene]amino}benzoic acid], in data set [1], the “MIC KP 24 h” value was more than 500 µM. Besides, the “MIC KP 48 h” value in data set [1] is on record as more than 500 µM. For the same compound, the MIC is 125 µM (≈ 37.2 µg/mL) in data set [2] (setting [5]); 125 µM (≈ 37.2 µg/mL) in data set [2] (setting [6]); 250 µM (≈ 74.3 µg/mL) in data set [2] (setting [7]); more than 500 µM in the data set with Candida glabrata 20/I (24 h, read-out: MIC CG 24 h); more than 500 µM with Candida glabrata 20/I (48 h, read-out: MIC CG 48 h); more than 500 µM in data set [3] (setting [8]). For the same compound, the MIC in data set [3] (setting [9]) was more than 500 µM. Moreover, the “MIC, antifungal activity” value in the data set with eight fungal strains is listed as “not translated into any antifungal action”.
